Tests used:
Format in all cases: cell-based, human
CCRF-CEM = assay: NCI 60 panel growth inhibition (SRB), leukemia; settings: 10 μM
Protocol: (§1) Screening of cytotoxic activity against a panel of sixty human tumor cell lines The selected compounds by NCI were evaluated for their anticancer activity in a two- stage process. […] Then, the output from the single dose screen is reported as a mean graph. […] Assay protocol. […] For a typical screening experiment, cells are inoculated into 96 well microtiter plates in 100 µL at plating densities ranging from 5000 to 40,000 cells/well depending on the doubling time of individual cell lines. […] After 24 h, two plates of each cell line are fixed in situ with TCA, to represent a measurement of the cell population for each cell line at the time of drug addition (Tz). The experimental drugs are solubilized in dimethyl sulfoxide at 400-fold the desired final maximum test concentration and stored frozen prior to use. At the time of drug addition, an aliquot of frozen concentrate is thawed and diluted to twice the desired final maximum test concentration with complete medium containing 50 µg/mL gentamicin. Additional four, 10-fold or ½ log serial dilutions are made to provide a total of five drug concentrations plus control. […] For adherent cells, the assay is terminated by the addition of cold TCA. […] The supernatant is discarded, and the plates are washed five times with tap water and air dried. […] Using the seven absorbance measurements [time zero, (Tz), control growth, (C), and test growth in the presence of drug at the five concentration levels (Ti)], the percentage growth is calculated at each of the drug concentrations levels. Percentage growth inhibition is calculated as: [(Ti Tz)/(C–Tz)] x 100 for concentrations for which Ti>/=Tz and [(Ti-Tz)/Tz] x 100 for concentrations for which Ti < Tz. Three dose response parameters are calculated for each experimental agent. […] The drug concentration resulting in total growth inhibition (TGI) is calculated from Ti = Tz. […] Values are calculated for each of these three parameters if the level of activity is reached; however, if the effect is not reached or is exceeded, the value for that parameter is expressed as greater or less than the maximum or minimum concentration tested.

HL-60(TB) = assay: NCI 60 panel growth inhibition (SRB), leukemia; settings: HL-60(TB), 10 μM
Protocol: as §1

K-562 = assay: NCI 60 panel growth inhibition (SRB), leukemia; settings: K-562, 10 μM
Protocol: as §1

MOLT-4 = assay: NCI 60 panel growth inhibition (SRB), leukemia; settings: MOLT-4, 10 μM
Protocol: as §1

RPMI-8226 = assay: NCI 60 panel growth inhibition (SRB), leukemia; settings: RPMI-8226, 10 μM
Protocol: as §1

SR = assay: NCI 60 panel growth inhibition (SRB), leukemia; settings: 10 μM
Protocol: as §1

LOX IMVI = assay: NCI 60 panel growth inhibition (SRB), melanoma; settings: 10 μM
Protocol: as §1

M14 = assay: NCI 60 panel growth inhibition (SRB), melanoma; settings: M14, 10 μM
Protocol: as §1

SK-MEL-28 = assay: NCI 60 panel growth inhibition (SRB), melanoma; settings: SK-MEL-28, 10 μM
Protocol: as §1

SK-MEL-5 = assay: NCI 60 panel growth inhibition (SRB), melanoma; settings: SK-MEL-5, 10 μM
Protocol: as §1

UACC-257 = assay: NCI 60 panel growth inhibition (SRB), melanoma; settings: UACC-257, 10 μM
Protocol: as §1

UACC-62 = assay: NCI 60 panel growth inhibition (SRB), melanoma; settings: UACC-62, 10 μM
Protocol: as §1

IGROV1 = assay: NCI 60 panel growth inhibition (SRB), ovarian cancer; settings: IGROV1, 10 μM
Protocol: as §1

NCI/ADR-RES = assay: as above; settings: 10 μM
Protocol: as §1

OVCAR-3 = assay: as above; settings: OVCAR-3, 10 μM
Protocol: as §1

OVCAR-4 = assay: as above; settings: OVCAR-4, 10 μM
Protocol: as §1

OVCAR-5 = assay: as above; settings: OVCAR-5, 10 μM
Protocol: as §1

OVCAR-8 = assay: as above; settings: OVCAR-8, 10 μM
Protocol: as §1

SK-OV-3 = assay: as above; settings: SK-OV-3, 10 μM
Protocol: as §1

786-0 = assay: NCI 60 panel growth inhibition (SRB), renal cancer; settings: 786-0, 10 μM
Protocol: as §1

A498 = assay: NCI 60 panel growth inhibition (SRB), renal cancer; settings: A498, 10 μM
Protocol: as §1

ACHN = assay: NCI 60 panel growth inhibition (SRB), renal cancer; settings: 10 μM
Protocol: as §1

CAKI-1 = assay: NCI 60 panel growth inhibition (SRB), renal cancer; settings: CAKI-1, 10 μM
Protocol: as §1

RXF 393 = assay: NCI 60 panel growth inhibition (SRB), renal cancer; settings: RXF 393, 10 μM
Protocol: as §1

SN12C = assay: NCI 60 panel growth inhibition (SRB), renal cancer; settings: 10 μM
Protocol: as §1

TK-10 = assay: NCI 60 panel growth inhibition (SRB), renal cancer; settings: TK-10, 10 μM
Protocol: as §1

UO-31 = assay: NCI 60 panel growth inhibition (SRB), renal cancer; settings: UO-31, 10 μM
Protocol: as §1

DU-145 = assay: NCI 60 panel growth inhibition (SRB), prostate cancer; settings: DU-145, 10 μM
Protocol: as §1

BT-549 = assay: NCI 60 panel growth inhibition (SRB), breast cancer; settings: BT-549, 10 μM
Protocol: as §1

HS 578T = assay: as above; settings: 10 μM
Protocol: as §1

MCF7 = assay: as above; settings: MCF7, 10 μM
Protocol: as §1

MDA-MB-231/ATCC = assay: as above; settings: 10 μM
Protocol: as §1

MDA-MB-468 = assay: as above; settings: MDA-MB-468, 10 μM
Protocol: as §1

T-47D = assay: as above; settings: 10 μM
Protocol: as §1

PC-3 = assay: NCI 60 panel growth inhibition (SRB), prostate cancer; settings: PC-3, 10 μM
Protocol: as §1

SMILES | GI% (CCRF-CEM) [%] | GI% (HL-60(TB)) | GI% (K-562) [%] | GI% (MOLT-4) [%] | GI% (RPMI-8226) [%] | GI% (LOX IMVI) | GI% (M14) | GI% (SK-MEL-28) | GI% (SK-MEL-5) [%] | GI% (UACC-257) | GI% (UACC-62) [%] | GI% (IGROV1) | GI% (NCI/ADR-RES) [%] | GI% (OVCAR-3) | GI% (OVCAR-5) | GI% (OVCAR-8) | GI% (SK-OV-3) | GI% (786-0) [%] | GI% (A498) | GI% (ACHN) [%] | further results
COc1cccc(-c2nc3ccccc3s2)c1OCC(=O)NN=C1C(=O)Nc2ccc(Br)cc21 [Compound 9l, 2-(2-(Benzo[d]thiazol-2-yl)-6-methoxyphenoxy)-N′-(5-bromo-2-oxoindolin-3-ylidene)acetohydrazide] | 15.16 | – (GI% < 5%) | 18.70 | 36.40 | 25.41 | 19.74% | – (GI% < 5%) | – (GI% < 5%) | 19.70 | – (GI% < 5%) | 35.62 | 11.35% | 19.73 | – (GI% < 5%) | – (GI% < 5%) | 10.38% | – (GI% < 5%) | 16.93 | – (GI% < 5%) | 22.74 | GI% (SR): 16.68%; GI% (OVCAR-4): 11.40%; GI% (CAKI-1): 40.19%; GI% (RXF 393): 14.21%; GI% (SN12C): 16.14%; GI% (TK-10): – (GI% < 5%); GI% (UO-31): 30.14%; GI% (DU-145): – (GI% < 5%); GI% (BT-549): – (GI% < 5%); GI% (HS 578T): – (GI% < 5%); GI% (MCF7): 35.92%; GI% (MDA-MB-231/ATCC): 27.34%; GI% (MDA-MB-468): 19.79%; GI% (T-47D): 41.03%
COc1ccc(-c2nc3ccccc3s2)cc1OCC(=O)NN=C1C(=O)Nc2ccc(C)cc21 [Compound 9n, 2-(5-(Benzo[d]thiazol-2-yl)-2-methoxyphenoxy)-N′-(5-methyl-2-oxoindolin-3-ylidene)acetohydrazide] | 16.11 | – (GI% < 5%) | 6.70 | 13.07 | 14.26 | – (GI% < 5%) | – (GI% < 5%) | 6.91% | 7.31 | – (GI% < 5%) | 13.88 | – (GI% < 5%) | 14.31 | – (GI% < 5%) | 7.10% | – (GI% < 5%) | – (GI% < 5%) | 44.99 | – (GI% < 5%) | 8.57 | GI% (CAKI-1): 12.63%; GI% (SN12C): 5.76%; GI% (TK-10): – (GI% < 5%); GI% (UO-31): – (GI% < 5%); GI% (DU-145): 7.08%; GI% (PC-3): – (GI% < 5%); GI% (BT-549): – (GI% < 5%); GI% (HS 578T): 5.72%; GI% (MCF7): 25.33%; GI% (MDA-MB-231/ATCC): 12.37%; GI% (MDA-MB-468): – (GI% < 5%); GI% (T-47D): 13.50%
CNC(=O)c1nn(C)c2c1C(C)(C)Cc1cnc(Nc3ccc(N4CCN(C)CC4)cc3)nc1-2 [Milciclib, reference compound] | 89.60 | 127.0% | 94.6 | 97.70 | 99.60 | 94.70% | 87.5% | 83.80% | 92.70 | 114.80% | 109.5 | 97.50% | 90.10 | 79.30% | 90.90% | 91.10% | 116.90% | 87.70 | 161.60% | 90.4 | GI% (SR): 101.8%; GI% (OVCAR-4): 87.10%; GI% (CAKI-1): 92.30%; GI% (RXF 393): 148.20%; GI% (SN12C): 88.70%; GI% (TK-10): 112.5%; GI% (UO-31): 108.7%; GI% (DU-145): 84.50%; GI% (PC-3): 92.10%; GI% (BT-549): 94.80%; GI% (MCF7): 89.60%; GI% (MDA-MB-231/ATCC): 85.30%; GI% (MDA-MB-468): 113.40%; GI% (T-47D): 105.70%
